Data on 108 compounds can be found in a melting point compilation (Tetko et al.).

The term melting point denotes the temperature, or range, at which the solid turns liquid.

Structures are written as SMILES.

As for `NC(CO)Cc1ccccc1` (stereo not drawn), the melting point stood at 91.5 °C.

In the case of `OC(Cc1ccccc1)C(Cc1ccccc1)=NNc1ccc(Br)cc1` (stereo not drawn), the melting point worked out at 139 °C.

In turn, `Nc1cc(Br)ccc1Cl` had a melting point of 48 to 49 °C.

On to `CC(C)S(=O)(=O)c1csc(C(=O)Cl)c1Cl`, for which the melting point fell in the range of 170 to 171 °C. In the case of `C=CC12CN(C)C3C4COC(CC41)C1(C(=O)Nc4ccccc41)C32` (stereo not drawn) it was 178 °C; in that of `Nc1cc2ccccc2oc1=O`, 136 °C. In the case of `O=[N+]([O-])c1ccc(O)cc1O` it was 122 °C. `CC(C)(C)C(Br)Br` registered a melting point of 14 °C. As to `Cc1c(C(C)C)c(=O)n(-c2ccccc2)n1C`, the melting point turned out to be 103 °C. Next, `c1ccc2c(c1)ccc1ccc3ccccc3c12`: 68 °C; `O=C(O)c1ccc(O)nn1`: 246 to 247 °C. As for `O=C(O)C1(c2ccc(F)cc2)CCCC1`, the melting point fell in the range of 160 to 165 °C.

On to `O=C1C(=Cc2ccc(O)c(O)c2)Oc2cc(O)ccc21`, for which the melting point stood at 303 °C. In the case of `COC(=O)c1cc(C)on1` it was 92 °C.

Turning to `O=C(C1=NOC2C(=O)N(c3ccccc3[N+](=O)[O-])C(=O)C12)c1ccc(Cl)cc1` (stereo not drawn), the melting point came to 173 °C. For `Nc1ccccc1C(=O)OCC=Cc1ccccc1`, the melting point is 61 °C. Next, `Brc1nc2ccccc2s1`: 40 to 42 °C; `CC(=O)NC(C(=O)O)c1ccccc1` (stereo not drawn): 197 to 201 °C; `O=C(O)C1CC(=O)N(Cc2ccc(C(F)(F)F)cc2)C1` (stereo not drawn): 128 to 130 °C.

Consider `CCOC(=O)C(Cl)Cc1cc(-n2nc(C)n(C(F)F)c2=O)c(F)cc1Cl` (stereo not drawn), for which the melting point is -22.1 °C. In the case of `COC(=O)C(C#N)=Cc1cc(Br)c(O)c(OC)c1`, the melting point worked out at 200 °C.

Compound `C=CCOc1c(Br)cc(C(C)(C)c2cc(Br)c(OCC=C)c(Br)c2)cc1Br` registered a melting point of 119 °C. `NS(=O)(=O)c1cc(C(=O)OCOC(=O)c2ccccc2)c(NCc2ccco2)cc1Cl`: the melting point amounted to 179 °C.

`O=Cc1cc(F)ccc1[N+](=O)[O-]` showed a melting point of 94.5 °C. Next, `COc1ccc2[nH]c(C(=O)O)cc2c1`: 197 to 201 °C; `CCOC(=O)C1=C(C)NC(C)=C(C(=O)OCC)C1`: 180 °C. `Oc1nc(S)c2nc[nH]c2n1` came in with a melting point of 300 °C.

The compound `COc1c2ccoc2cc2oc(C)cc(=O)c12` showed a melting point of 144 °C. In the case of `CC(C)(C)S(=O)(=O)c1cnc(-c2ccccn2)nc1N` it was 266 to 268 °C; in that of `CCC(C)CC(C)(C)C` (stereo not drawn), -120 °C; in that of `CCNc1cc2oc(=O)cc(C)c2cc1C`, 168 to 170 °C. Consider `CCCCC(/C=C1\C(=O)C2(C)CCC1C2(C)C)(/C=C1\C(=O)C2(C)CCC1C2(C)C)C(=O)OCC` (stereo not drawn), for which the melting point stood at 175 °C. Take `NC(C(=O)O)(c1ccccc1)C1CCC1` (stereo not drawn): the melting point fell in the range of 256 to 258 °C. The compound `Cc1cc(Br)cc(Br)c1O` gave a melting point of 58 °C. `NC(=O)c1sccc1Br` had a melting point of 78 °C. With `CSc1nnc(S)s1`, the melting point came out at 136 °C. Next, `COC(=O)c1cc(C=O)oc1C`: 83 °C; `Cc1cc(C)nc(NN)n1`: 166 to 167 °C. `O=C(c1ccccc1)N1CC(c2ccccc2)C=C1c1ccccc1` (stereo not drawn) had a melting point of 180 °C. Next, `CCCC(/C=C1\C(=O)C2(C)CCC1C2(C)C)(/C=C1\C(=O)C2(C)CCC1C2(C)C)C(=O)OCC` (stereo not drawn): 161 °C; `NS(=O)(=O)c1ccc(N2CCCCS2(=O)=O)cc1`: 180 °C; `CC(C)c1ccc(NC(=O)N(C)C)cc1`: 158 °C. In the case of `COc1ccc2c(c1)=NC1=C(C)NCCC=21` it was 230 °C; in that of `CC(=O)n1nc(C(F)(F)F)cc1-c1ccccc1`, 77 °C; in that of `Cc1nc(-c2ccccc2)c(C=O)s1`, 72 to 75 °C. Next, `Nc1ncnc2c1ncn2C1CCC(CO)O1` (stereo not drawn): 185 °C.

Compound `CCCCCCCCCC(=O)CCC` showed a melting point of 19 °C. In the case of `CC(C)Cc1ccc(C(C)C(=O)NN)cc1` (stereo not drawn) it was 76 to 78 °C. In the case of `COc1ccc(C)cc1O` it was 37 to 39 °C; in that of `c1ccc(COc2ccc3ccccc3c2)cc1`, 97 °C. Compound `O=C(C1=NOC2C(=O)N(c3ccc(O)cc3)C(=O)C12)c1ccc([N+](=O)[O-])cc1` (stereo not drawn) displayed a melting point of 213 °C. In the case of `O=C(O)c1cccc(COc2ccccc2)c1` it was 118 to 119 °C. For `c1ccc(Cn2cncn2)cc1`, the melting point was 49 °C.

Compound `CC1=Nc2ccccc2Sc2c1c(=O)n(-c1ccccc1)c1ccccc21` came in with a melting point of 231 °C.

On to `C[C@]12CCC(=O)C=C1C(=O)C[C@@H]1[C@@H]2CC[C@]2(C)C(=O)CC[C@@H]12`, for which the melting point is 222 °C. `O=[N+]([O-])c1ccccc1-c1nc(-c2ccccc2)c(-c2ccccc2)[nH]1` displayed a melting point of 235 to 238 °C. In the case of `Cc1ncnc2[nH]cnc12` it was 235 to 240 °C; in that of `CC(=O)Oc1ccccc1C(=O)Oc1ccccc1`, 96 °C. In turn, `CCOC(=O)c1nc(-c2cncc(Br)c2)no1` had a melting point of 101 to 103 °C. Next, `Cc1coc2ccccc2c1=O`: 68 °C.

As for `NNc1cnn(-c2ccccc2)c(=O)c1Cl`, the melting point came out at 170 °C. In the case of `Brc1ccc(Oc2ccccc2Br)cc1Br` it was < 20 °C; in that of `OC1OCC(Cc2ccc3c(c2)OCO3)C1Cc1ccc2c(c1)OCO2` (stereo not drawn), 132 °C.

On to `O=C(O)c1ccc(Cl)cc1Br`, for which the melting point was 159 to 161 °C. In the case of `O=C1C2(CCCCC2)C(=O)C12CCCCC2` it was 166 °C; in that of `Cc1ccc(C(C)(C)C(=O)ON)cc1`, 119 °C; in that of `COc1ccc(C=NN=C2NC(=O)C(=Cc3ccccc3)S2)cc1`, 255 to 257 °C. With `Cc1cc(=O)[nH]cc1Br`, the melting point was 196 to 201 °C. In the case of `Clc1ccc2c(c1)Oc1c(Cl)c(Cl)c(Cl)c(Cl)c1O2` it was 195 °C; in that of `COc1cccc(-c2cccc(OC)c2)c1`, 36 °C; in that of `CCCCCCCCCCC(C)Br` (stereo not drawn), -96 °C.

Compound `CCCCC(CC)COC(=O)c1ccc(C(=O)OCC(CC)CCCC)cc1` (stereo not drawn) gave a melting point of 30 to 34 °C. For `CC(COc1ccc(C(C)(C)C)cc1)OS(=O)OCCCl` (stereo not drawn), the melting point is -31.7 °C. In the case of `CCC(c1ccc(O)cc1)C(CC)c1ccc(O)cc1` (stereo not drawn) it was 187 °C; in that of `O=[N+]([O-])c1ccc(Sc2ccc([N+](=O)[O-])cc2)cc1`, 160 °C. Compound `CC(C)S(=O)(=O)n1c(N)nc2ccc(C(=NO)c3ccccc3)cc21` had a melting point of 198 °C. Compound `CCOC(=O)C1=NN(c2ccc([N+](=O)[O-])cc2)C2(C)CC3(c4ccccc4)N(c4ccc([N+](=O)[O-])cc4)N=C(C(=O)OCC)N3c3ccccc3N12` (stereo not drawn) displayed a melting point of 237 to 239 °C. Next, `CC1(C)CCC(=O)CC1=O`: 103 to 105 °C. In turn, `Cc1nc(-c2ccc(C=O)s2)cs1` registered a melting point of 127 to 128 °C. In the case of `O=C(O)C1CSC(c2ccccc2)N1` (mixture of isomers) it was 158 to 162 °C; in that of `CCOC(=O)CCCCCCC(=O)OCC`, 5.9 °C; in that of `Cc1c(-c2ccccc2)sc2ncnc(Cl)c12`, 133 to 135 °C. As for `c1ccc2c(c1)CCc1ccccc1N2C1CN2CCC1CC2` (stereo not drawn), the melting point is 150 °C.

For `Cc1cncc(C#N)c1`, the melting point came out at 84 °C. Next, `Cc1cccc(C(=O)N(NC(=O)c2ccccc2)C(C)(C)C)c1`: 211 °C; `NCCNc1ccc([N+](=O)[O-])cn1`: 126 to 128 °C; `COc1cc2c(cc1O)C(Cc1ccc(OC)c(OC)c1)N(C)CC2` (stereo not drawn): 127 °C. `N#CC(c1ccccc1)N1CCCCC1` (stereo not drawn) registered a melting point of 62 to 63 °C. Next, `CC(=O)c1cc(C)cc([N+](=O)[O-])c1O`: 135 °C; `Brc1cnc(N2CCNCC2)nc1`: 77 to 79 °C; `O=C(Cl)OCC1c2ccccc2-c2ccccc21`: 63 °C.

In turn, `Cc1cnc(Cl)nc1Cl` came in with a melting point of 26 °C. Regarding `C#CC1(O)CCC2C3CCC4=CCCCC4C3C(=C)CC21CC` (stereo not drawn), the melting point was 110 °C. In the case of `Brc1n[nH]c2nc3ccccc3nc12` it was 273 to 276 °C; in that of `O=[N+]([O-])c1ccc(CSc2ncnc3c2ncn3C2OC(CO)C(O)C2O)cc1` (stereo not drawn), 194 to 196 °C; in that of `CCOc1ccc(Cl)cc1`, 21 °C. Compound `CC(C)NCC(O)c1ccc([N+](=O)[O-])cc1` (stereo not drawn) had a melting point of 98 °C. Compound `O=C(Cl)C12CC3CC(CC(C3)C1)C2` showed a melting point of 51 °C. Next, `O=CC1=C(Cl)c2cc(Cl)ccc2SC1`: 84 to 86 °C; `CCS(=O)(=O)c1ccccc1`: 42 °C. Next, `O=[N+]([O-])c1cccc(-c2nnc3n2NC(c2ccc(Cl)cc2)S3)c1` (stereo not drawn): 199 °C; `NS(=O)(=O)c1cccc(Cl)c1Cl`: 220 °C. In the case of `N#Cc1ccc(Cl)c(Cl)c1` it was 72 °C.

Regarding `O=Cc1ccc(OCc2ccccc2)c(Cl)c1`, the melting point lay within 93 to 94 °C. `O=[N+]([O-])c1ccc(N2CCNCC2)c(Cl)c1` registered a melting point of 105 to 106 °C. Turning to `O=C(C=Cc1ccc(-c2ccc(Br)cc2)o1)c1ccco1`, the melting point is 164 to 165 °C. In the case of `O=Cc1cccc(Oc2ccccn2)c1` it was 115 to 116 °C; in that of `O=C(C=NO)Nc1ccccc1`, 175 °C.
